Experimental data published in publication PMC9361468 (RSC Advances, 2022).
Read-outs that look alike come from different tables or passages of the source.

Columns and labels:
[1] = Experimental pKa, common substituted piperazines, mean ± SD of 3 experiments
[2] = Experimental pKa, PROTAC precursors, mean ± SD of 3 experiments

Row | SMILES | % protonation state at pH = 7.5, NI: not-ionized state (PROTAC precursors) | % protonation state at pH = 7.5, P: single protonation state (PROTAC precursors) | pKa (physchem) | other results
1 | COc1ccc2c(c1)c(CC(=O)N1CCN(CCCC(C)=O)CC1)c(C)n2C(=O)c1ccc(Cl)cc1 [Compound 13] | NI: 84.90% | P: 15.09% | 6.75 ± 0.03 | –
2 | CC(=O)N1CCN(C)CC1 [1-Acetyl-4-methylpiperazine, reference compound] | – | – | – | % protonation state at pH = 7.5, NI: not-ionized state (substituted piperazines): NI: 73.36%; % protonation state at pH = 7.5, P: single protonation state (substituted piperazines): P: 26.64%; % protonation state at pH = 7.5, NI: not-ionized state (substituted piperazines, listed as 1-acetyl-4-methylpiperazine): 73.4%; pKa (physchem; [1]): 7.06
3 | COc1ccc2c(c1)c(CC(=O)N1CCN(CCC(C)=O)CC1)c(C)n2C(=O)c1ccc(Cl)cc1 [Compound 12] | NI: 97.07% | P: 2.93% | 5.98 ± 0.05 | –
4 | COC(=O)CCC(=O)N1CCN(CCNC(=O)Cc2c(C)n(C(=O)c3ccc(Cl)cc3)c3ccc(OC)cc23)CC1 [Compound 16] | NI: 98.73% | P: 1.27% | – | pKa (physchem; [2]): 5.61
5 | CN1CCNCC1 [1-Methylpiperazine, reference compound] | – | – | – | % protonation state at pH = 7.5, DP: double protonation state (substituted piperazines): DP: 2.13%; % protonation state at pH = 7.5, NI: not-ionized state (substituted piperazines): NI: 0.32%; % protonation state at pH = 7.5, P: single protonation state (substituted piperazines): P: 97.55%; pKa (physchem; [1]): 9.16
6 | Cc1sc2c(c1C)C(c1ccc(Cl)cc1)=N[C@@H](CC(=O)N1CCN(C)CC1)c1nnc(C)n1-2 [Compound 2] | NI: 69.61% | P: 30.39% | 7.14 ± 0.02 | –
7 | C#CCN1CCN(C(=O)C[C@@H]2N=C(c3ccc(Cl)cc3)c3c(sc(C)c3C)-n3c(C)nnc32)CC1 [Compound 5] | NI: 99.74% | P: 0.26% | 4.91 ± 0.14 | –
8 | C1CNCCN1 [Piperazine, reference compound] | – | – | – | % protonation state at pH = 7.5, DP: double protonation state: DP: 0.86%; % protonation state at pH = 7.5, NI: not-ionized state: NI: 0.67%; % protonation state at pH = 7.5, P: single protonation state: P: 98.48%
9 | COc1ccc2c(c1)c(CC(=O)NCCCN1CCN(CCCNC(=O)CCC(=O)N[C@H](C(=O)N3C[C@H](O)C[C@H]3C(=O)N[C@@H](C)c3ccc(-c4scnc4C)cc3)C(C)(C)C)CC1)c(C)n2C(=O)c1ccc(Cl)cc1 [PROTAC-8] | – | – | – | % protonation state at pH = 7.5, DP: double protonation state (PROTACs): DP: 0.02%; % protonation state at pH = 7.5, NI: not-ionized state (PROTACs): NI: 32.86%; pKa (physchem; Experimental pKa, PROTACs, mean ± SD of 3 experiments): 3.94
10 | CN1CCN(C)CC1 [1,4-Dimethylpiperazine, reference compound] | – | – | – | % protonation state at pH = 7.5, DP: double protonation state (substituted piperazines): DP: 0.02%; % protonation state at pH = 7.5, NI: not-ionized state (substituted piperazines): NI: 21.59%; % protonation state at pH = 7.5, P: single protonation state (substituted piperazines): P: 78.38%; pKa (physchem; [1]): ~8
11 | COC(=O)CCCCCCN1CCN(C(=O)Cc2c(C)n(C(=O)c3ccc(Cl)cc3)c3ccc(OC)cc23)CC1 [Compound 15] | NI: 55.16% | – | 7.41 ± 0.08 | –
12 | COc1ccc2c(c1)c(CC(=O)N1CCN(CCC(=O)N[C@H](C(=O)N3C[C@H](O)C[C@H]3C(=O)N[C@@H](C)c3ccc(-c4scnc4C)cc3)C(C)(C)C)CC1)c(C)n2C(=O)c1ccc(Cl)cc1 [PROTAC-6] | – | – | – | % protonation state at pH = 7.5, NI: not-ionized state (PROTACs): NI: 98.33%
13 | COC(=O)CCCCN1CCN(C(=O)Cc2c(C)n(C(=O)c3ccc(Cl)cc3)c3ccc(OC)cc23)CC1 [Compound 14] | NI: 72.91% | – | 7.07 ± 0.05 | –
14 | COc1ccc2c(c1)c(CC(=O)N1CCN(CC(C)=O)CC1)c(C)n2C(=O)c1ccc(Cl)cc1 [Compound 9] | – | P: 3.83% | 5.35 ± 0.04 | –
15 | CC(=O)CN1CCN(C(=O)c2ccc3c(c2)nc(Nc2cccc(Cl)c2)c2ccncc23)CC1 [Compound 8] | NI: 99.71% | P: 0.29% | – | –
16 | O=C(c1cc(Cc2n[nH]c(=O)c3ccccc23)ccc1F)N1CCN(Cc2ccccc2)CC1 [Compound 7] | NI: 97.07% | P: 2.93% | – | pKa (physchem; [2]): 5.98 ± 0.01
17 | COc1ccc2c(c1)c(CC(=O)N1CCN(C)CC1)c(C)n2C(=O)c1ccc(Cl)cc1 [Compound 4] | NI: 78.79% | P: 21.20% | 6.93 ± 0.03 | –
18 | CCN1CCNCC1 [1-Ethylpiperazine, reference compound] | – | – | – | % protonation state at pH = 7.5, DP: double protonation state (substituted piperazines): DP: 2.18%; % protonation state at pH = 7.5, NI: not-ionized state (substituted piperazines): NI: 0.34%; % protonation state at pH = 7.5, P: single protonation state (substituted piperazines): P: 97.48%; pKa (physchem; [1]): 5.04 ± 0.03
19 | CC(=O)N1CCNCC1 [1-Acetyl-piperazine, reference compound] | – | – | – | % protonation state at pH = 7.5, NI: not-ionized state (substituted piperazines): NI: 21.99%; % protonation state at pH = 7.5, P: single protonation state (substituted piperazines): P: 78.01%; pKa (physchem; [1]): 8.05 ± 0.02
20 | COc1ccc2c(c1)c(CC(=O)N1CCN(CCOCCO)CC1)c(C)n2C(=O)c1ccc(Cl)cc1 [Compound 17] | NI: 84.90% | P: 15.10% | 6.75 ± 0.14 | –
21 | CCOC(=O)CN1CCN(C(=O)Cc2c(C)n(C(=O)c3ccc(Cl)cc3)c3ccc(OC)cc23)CC1 [Compound 10] | NI: 99.9% | – | 4.5 ± 0.06 | –
22 | COc1ccc2c(c1)c(CC(=O)N1CCN(CCOCCOCC(=O)N[C@H](C(=O)N3C[C@H](O)C[C@H]3C(=O)N[C@@H](C)c3ccc(-c4scnc4C)cc3)C(C)(C)C)CC1)c(C)n2C(=O)c1ccc(Cl)cc1 [PROTAC-10] | – | – | – | % protonation state at pH = 7.5, NI: not-ionized state (PROTACs): NI: 94.44%
